# From the kinase profiling compilation of Christmann-Franck et al. (2016)
# Columns and labels:
# Assay in all cases: KINOMEscan competition binding
# Conditions in all cases: compound 1.0 µM
# ALK (human) = ALK (human) (UniProt Q9UM73)
# BRSK1 (human) = BRSK1 (human) (UniProt Q8TDC3)
# CAMK2B (human) = CAMK2B (human) (UniProt Q13554)
# CAMKK1 (human) = CAMKK1 (human) (UniProt Q8N5S9)
# CDC42BPA (human) = CDC42BPA (human) (UniProt Q5VT25)
# CDC42BPG (human) = CDC42BPG (human) (UniProt Q6DT37)
# CDK17 (human) = CDK17 (human) (UniProt Q00537)
# Sequence of CDK17 (human) (Q00537 whole entry, looked up): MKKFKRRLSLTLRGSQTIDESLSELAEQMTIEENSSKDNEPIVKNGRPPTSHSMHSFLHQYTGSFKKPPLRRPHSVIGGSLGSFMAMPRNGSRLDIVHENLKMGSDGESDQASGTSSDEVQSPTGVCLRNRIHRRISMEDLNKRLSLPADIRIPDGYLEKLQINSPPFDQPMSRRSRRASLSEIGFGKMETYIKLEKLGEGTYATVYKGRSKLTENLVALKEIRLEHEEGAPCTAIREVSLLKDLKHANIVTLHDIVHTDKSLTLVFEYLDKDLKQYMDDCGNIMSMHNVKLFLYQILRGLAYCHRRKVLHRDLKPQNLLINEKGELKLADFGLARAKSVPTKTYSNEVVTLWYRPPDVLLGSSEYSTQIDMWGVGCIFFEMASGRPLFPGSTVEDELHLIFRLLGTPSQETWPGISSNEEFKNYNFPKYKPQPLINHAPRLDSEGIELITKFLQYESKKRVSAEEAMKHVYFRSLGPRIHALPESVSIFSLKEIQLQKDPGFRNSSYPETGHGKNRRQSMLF
# CDK2 (human) = CDK2 (human) (UniProt P24941)
# CDK4 CCND3 (human) = CDK4 CCND3 (human) (UniProt P11802+P30281)
# CRK2 (P.falciparum) = CRK2 (P.falciparum) (UniProt P61075)
# CSNK1E (human) = CSNK1E (human) (UniProt P49674)
# CSNK2A2 (human) = CSNK2A2 (human) (UniProt P19784)
# DDR1 (human) = DDR1 (human) (UniProt Q08345)
# EPHB1 (human) = EPHB1 (human) (UniProt P54762)
# ERBB4 (human) = ERBB4 (human) (UniProt Q15303)
# FES (human) = FES (human) (UniProt P07332)
# FGFR3 (human) = FGFR3 (human) (UniProt P22607)
# [1] = system: FLT3 (human), P36888 [N841I]
# HIPK4 (human) = HIPK4 (human) (UniProt Q8NE63)
# INSR (human) = INSR (human) (UniProt P06213)
# IRAK3 (human) = IRAK3 (human) (UniProt Q9Y616)
# [2] = biological target: JAK1 JH2 pseudokinase (human) (UniProt P23458)
# KIT (human) = KIT (human) (UniProt P10721)
# [3] = system: KIT (human), P10721 [D816H]
# [4] = system: KIT (human), P10721 [V559D]
# LATS2 (human) = LATS2 (human) (UniProt Q9NRM7)
# MAK (human) = MAK (human) (UniProt P20794)
# MAP2K4 (human) = MAP2K4 (human) (UniProt P45985)
# MAP3K10 (human) = MAP3K10 (human) (UniProt Q02779)
# MAP3K15 (human) = MAP3K15 (human) (UniProt Q6ZN16)
# MAP4K3 (human) = MAP4K3 (human) (UniProt Q8IVH8)
# MARK1 (human) = MARK1 (human) (UniProt Q9P0L2)
# MTOR (human) = MTOR (human) (UniProt P42345)
# MUSK (human) = MUSK (human) (UniProt O15146)
# NEK6 (human) = NEK6 (human) (UniProt Q9HC98)
# PIK3CA (human) = PIK3CA (human) (UniProt P42336)
# [5] = system: PIK3CA (human), P42336 [H1047Y]
# PIP5K1C (human) = PIP5K1C (human) (UniProt O60331)
# RIPK4 (human) = RIPK4 (human) (UniProt P57078)
# SRPK1 (human) = SRPK1 (human) (UniProt Q96SB4)
# Sequence of SRPK1 (human) (Q96SB4 whole entry, looked up): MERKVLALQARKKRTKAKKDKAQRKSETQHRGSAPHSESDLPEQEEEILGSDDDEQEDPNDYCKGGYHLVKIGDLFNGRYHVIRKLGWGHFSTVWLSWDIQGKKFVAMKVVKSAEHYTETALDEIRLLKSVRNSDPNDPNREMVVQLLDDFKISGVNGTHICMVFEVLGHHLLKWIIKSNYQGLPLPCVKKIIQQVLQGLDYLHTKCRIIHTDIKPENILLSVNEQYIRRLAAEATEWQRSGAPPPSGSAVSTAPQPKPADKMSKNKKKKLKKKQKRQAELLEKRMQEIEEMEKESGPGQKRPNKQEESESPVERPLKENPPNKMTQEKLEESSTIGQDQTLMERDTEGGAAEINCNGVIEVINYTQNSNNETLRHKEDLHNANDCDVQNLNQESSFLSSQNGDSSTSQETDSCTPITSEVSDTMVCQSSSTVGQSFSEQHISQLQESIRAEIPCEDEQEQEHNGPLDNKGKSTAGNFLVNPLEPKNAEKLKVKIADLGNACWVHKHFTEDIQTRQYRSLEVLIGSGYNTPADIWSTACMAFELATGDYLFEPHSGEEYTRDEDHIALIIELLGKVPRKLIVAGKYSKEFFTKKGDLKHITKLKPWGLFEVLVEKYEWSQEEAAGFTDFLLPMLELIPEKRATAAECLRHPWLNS
# STK35 (human) = STK35 (human) (UniProt Q8TDR2)
# STK38L (human) = STK38L (human) (UniProt Q9Y2H1)
# TEK (human) = TEK (human) (UniProt Q02763)
# Sequence of CAMK2B (human) (Q13554 whole entry, looked up): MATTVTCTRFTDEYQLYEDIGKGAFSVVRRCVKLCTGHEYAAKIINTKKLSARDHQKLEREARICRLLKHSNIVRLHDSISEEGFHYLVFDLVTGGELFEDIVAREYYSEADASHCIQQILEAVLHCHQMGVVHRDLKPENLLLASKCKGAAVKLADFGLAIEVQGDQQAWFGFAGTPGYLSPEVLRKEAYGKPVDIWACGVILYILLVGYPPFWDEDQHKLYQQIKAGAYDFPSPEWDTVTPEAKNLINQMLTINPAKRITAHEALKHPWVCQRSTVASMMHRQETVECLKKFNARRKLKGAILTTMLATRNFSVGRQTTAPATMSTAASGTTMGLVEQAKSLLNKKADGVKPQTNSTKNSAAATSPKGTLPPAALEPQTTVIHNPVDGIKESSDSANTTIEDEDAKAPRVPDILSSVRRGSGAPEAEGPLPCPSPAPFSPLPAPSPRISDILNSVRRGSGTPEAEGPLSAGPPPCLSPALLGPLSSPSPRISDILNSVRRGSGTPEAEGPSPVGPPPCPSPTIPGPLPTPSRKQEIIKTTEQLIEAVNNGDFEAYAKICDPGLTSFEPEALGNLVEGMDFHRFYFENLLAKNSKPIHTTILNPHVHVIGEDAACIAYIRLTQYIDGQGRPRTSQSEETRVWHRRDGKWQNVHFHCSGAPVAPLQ
# Sequence of CDC42BPG (human) (Q6DT37 whole entry, looked up): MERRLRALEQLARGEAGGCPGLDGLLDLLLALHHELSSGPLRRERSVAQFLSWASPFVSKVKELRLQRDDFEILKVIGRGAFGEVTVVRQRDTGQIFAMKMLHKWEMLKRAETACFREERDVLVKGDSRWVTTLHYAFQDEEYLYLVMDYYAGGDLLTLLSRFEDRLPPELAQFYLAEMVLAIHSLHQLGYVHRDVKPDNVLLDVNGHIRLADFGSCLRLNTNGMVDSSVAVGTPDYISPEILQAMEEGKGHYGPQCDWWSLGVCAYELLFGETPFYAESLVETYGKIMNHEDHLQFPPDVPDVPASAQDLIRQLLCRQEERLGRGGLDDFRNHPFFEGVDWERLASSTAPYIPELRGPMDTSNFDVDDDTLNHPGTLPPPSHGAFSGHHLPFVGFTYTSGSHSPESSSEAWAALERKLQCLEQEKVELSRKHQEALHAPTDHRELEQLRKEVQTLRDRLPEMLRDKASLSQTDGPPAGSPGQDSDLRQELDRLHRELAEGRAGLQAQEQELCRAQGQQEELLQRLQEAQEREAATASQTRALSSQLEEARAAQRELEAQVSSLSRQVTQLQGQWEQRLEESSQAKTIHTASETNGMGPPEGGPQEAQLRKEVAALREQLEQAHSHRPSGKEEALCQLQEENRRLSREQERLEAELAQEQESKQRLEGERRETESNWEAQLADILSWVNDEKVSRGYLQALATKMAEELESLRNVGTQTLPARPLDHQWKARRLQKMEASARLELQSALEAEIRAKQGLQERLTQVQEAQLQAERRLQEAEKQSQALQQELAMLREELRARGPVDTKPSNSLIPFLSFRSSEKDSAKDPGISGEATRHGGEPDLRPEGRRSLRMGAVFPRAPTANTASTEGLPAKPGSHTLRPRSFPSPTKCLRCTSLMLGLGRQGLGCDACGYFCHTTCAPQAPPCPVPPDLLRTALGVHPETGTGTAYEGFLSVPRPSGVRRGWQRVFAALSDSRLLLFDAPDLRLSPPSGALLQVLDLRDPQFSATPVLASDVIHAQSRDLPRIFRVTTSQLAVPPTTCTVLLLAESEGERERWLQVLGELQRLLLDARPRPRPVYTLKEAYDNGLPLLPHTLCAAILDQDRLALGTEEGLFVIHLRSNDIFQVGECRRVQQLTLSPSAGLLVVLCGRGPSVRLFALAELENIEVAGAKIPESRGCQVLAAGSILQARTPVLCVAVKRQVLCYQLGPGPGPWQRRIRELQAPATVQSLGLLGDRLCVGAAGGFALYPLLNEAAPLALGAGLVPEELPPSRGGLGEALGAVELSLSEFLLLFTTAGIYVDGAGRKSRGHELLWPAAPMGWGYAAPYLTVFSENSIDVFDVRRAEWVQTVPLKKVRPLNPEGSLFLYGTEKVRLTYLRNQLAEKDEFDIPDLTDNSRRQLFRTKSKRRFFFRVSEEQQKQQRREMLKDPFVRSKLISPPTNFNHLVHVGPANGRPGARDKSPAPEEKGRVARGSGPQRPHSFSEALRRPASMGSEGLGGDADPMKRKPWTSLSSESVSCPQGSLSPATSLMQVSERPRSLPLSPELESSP
# Sequence of ALK (human) (Q9UM73 whole entry, looked up): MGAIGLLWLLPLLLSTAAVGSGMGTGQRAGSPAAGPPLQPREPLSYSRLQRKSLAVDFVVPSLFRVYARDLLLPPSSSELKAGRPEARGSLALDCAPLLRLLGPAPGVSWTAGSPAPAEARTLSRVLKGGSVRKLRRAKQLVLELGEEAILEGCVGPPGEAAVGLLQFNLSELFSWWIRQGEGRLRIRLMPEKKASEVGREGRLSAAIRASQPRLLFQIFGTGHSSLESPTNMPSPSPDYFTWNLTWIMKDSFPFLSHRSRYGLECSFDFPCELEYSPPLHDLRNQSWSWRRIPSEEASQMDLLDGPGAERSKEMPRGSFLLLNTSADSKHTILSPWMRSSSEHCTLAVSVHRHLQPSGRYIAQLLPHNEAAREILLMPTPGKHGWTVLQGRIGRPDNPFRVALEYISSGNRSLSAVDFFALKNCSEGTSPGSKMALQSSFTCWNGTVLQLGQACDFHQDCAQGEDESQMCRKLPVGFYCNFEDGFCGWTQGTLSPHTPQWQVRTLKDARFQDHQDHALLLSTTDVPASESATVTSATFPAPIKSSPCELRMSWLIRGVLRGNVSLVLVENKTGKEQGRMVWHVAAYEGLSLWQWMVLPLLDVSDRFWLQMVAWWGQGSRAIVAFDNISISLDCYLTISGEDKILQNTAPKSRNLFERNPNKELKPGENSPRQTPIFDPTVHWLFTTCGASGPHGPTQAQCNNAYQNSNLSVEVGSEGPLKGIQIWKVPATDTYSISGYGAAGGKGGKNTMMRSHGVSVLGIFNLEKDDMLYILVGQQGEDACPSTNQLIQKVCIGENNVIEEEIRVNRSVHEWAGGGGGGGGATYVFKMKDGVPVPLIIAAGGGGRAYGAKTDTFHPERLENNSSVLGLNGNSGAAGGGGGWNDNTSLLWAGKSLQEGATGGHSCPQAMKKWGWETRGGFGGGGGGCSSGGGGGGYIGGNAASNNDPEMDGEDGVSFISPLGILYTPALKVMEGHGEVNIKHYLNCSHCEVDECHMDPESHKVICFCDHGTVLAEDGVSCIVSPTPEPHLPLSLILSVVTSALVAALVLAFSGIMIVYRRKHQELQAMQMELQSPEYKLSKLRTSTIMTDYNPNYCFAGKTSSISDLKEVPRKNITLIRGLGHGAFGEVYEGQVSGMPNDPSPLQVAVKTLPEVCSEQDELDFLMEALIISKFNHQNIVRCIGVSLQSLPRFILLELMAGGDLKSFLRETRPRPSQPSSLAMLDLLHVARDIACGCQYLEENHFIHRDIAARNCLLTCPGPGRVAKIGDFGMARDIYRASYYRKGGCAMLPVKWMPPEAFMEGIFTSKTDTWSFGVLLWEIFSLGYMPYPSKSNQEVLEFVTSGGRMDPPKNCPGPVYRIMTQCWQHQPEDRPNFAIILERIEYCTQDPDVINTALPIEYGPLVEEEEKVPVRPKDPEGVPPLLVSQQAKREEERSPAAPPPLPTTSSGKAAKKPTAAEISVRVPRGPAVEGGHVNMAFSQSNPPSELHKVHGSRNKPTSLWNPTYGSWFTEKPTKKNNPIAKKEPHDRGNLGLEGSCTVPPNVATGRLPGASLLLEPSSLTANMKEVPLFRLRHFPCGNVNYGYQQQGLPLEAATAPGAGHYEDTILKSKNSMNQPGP
smiles,measurement,setting,value
COCCNCCCn1c(C(=O)CF)c(-c2ccc(C)cc2)c2c(N)ncnc21,"kinase still bound, per cent of control",ALK (human),71%
same,"kinase still bound, per cent of control",BRSK1 (human),82%
same,"kinase still bound, per cent of control",CAMK2B (human),97%
same,"kinase still bound, per cent of control",CAMKK1 (human),100%
same,"kinase still bound, per cent of control",CDC42BPA (human),92%
same,"kinase still bound, per cent of control",CDC42BPG (human),84%
same,"kinase still bound, per cent of control",CDK17 (human),100%
same,"kinase still bound, per cent of control",CDK2 (human),83%
same,"kinase still bound, per cent of control",CDK4 CCND3 (human),100%
same,"kinase still bound, per cent of control",CRK2 (P.falciparum),100%
same,"kinase still bound, per cent of control",CSNK1E (human),87%
same,"kinase still bound, per cent of control",CSNK2A2 (human),99%
same,"kinase still bound, per cent of control",DDR1 (human),100%
same,"kinase still bound, per cent of control",EPHB1 (human),94%
same,"kinase still bound, per cent of control",ERBB4 (human),100%
same,"kinase still bound, per cent of control",FES (human),100%
same,"kinase still bound, per cent of control",FGFR3 (human),92%
same,"kinase still bound, per cent of control",[1],65%
same,"kinase still bound, per cent of control",HIPK4 (human),95%
same,"kinase still bound, per cent of control",INSR (human),84%
same,"kinase still bound, per cent of control",IRAK3 (human),86%
same,"kinase still bound, per cent of control",[2],100%
same,"kinase still bound, per cent of control",KIT (human),77%
same,"kinase still bound, per cent of control",[3],97%
same,"kinase still bound, per cent of control",[4],73%
same,"kinase still bound, per cent of control",LATS2 (human),100%
same,"kinase still bound, per cent of control",MAK (human),95%
same,"kinase still bound, per cent of control",MAP2K4 (human),78%
same,"kinase still bound, per cent of control",MAP3K10 (human),77%
same,"kinase still bound, per cent of control",MAP3K15 (human),100%
same,"kinase still bound, per cent of control",MAP4K3 (human),100%
same,"kinase still bound, per cent of control",MARK1 (human),90%
same,"kinase still bound, per cent of control",MTOR (human),90%
same,"kinase still bound, per cent of control",MUSK (human),100%
same,"kinase still bound, per cent of control",NEK6 (human),100%
same,"kinase still bound, per cent of control",PIK3CA (human),100%
same,"kinase still bound, per cent of control",[5],100%
same,"kinase still bound, per cent of control",PIP5K1C (human),100%
same,"kinase still bound, per cent of control",RIPK4 (human),100%
same,"kinase still bound, per cent of control",SRPK1 (human),100%
same,"kinase still bound, per cent of control",STK35 (human),99%
same,"kinase still bound, per cent of control",STK38L (human),92%
same,"kinase still bound, per cent of control",TEK (human),100%
